Source: patent publication US6852686B2, “Methods for ameliorating icthyosiform skin diseases” (The United States of America as represented by the …, priority 1999, dated 2005)
“Also recorded” adds a separate entry of the source.

How the values were obtained:
[1] = target: T1, TGase 1 (Homo sapiens, UniProt P22735); assay: Lipid Z esterification of involucrin by TGase 1 on SLV; format: biochemical; details: for involucrin-lipid adduct formation by TGase 1 on SLV membranes: ceramide incorporated in SLV
T1 construct: Recombinant full-length human TGase 1 and TGase 3 enzymes were expressed in Sf9 cells by the BaculoGold system; made in house; host or cells: Sf9 insect cells, BaculoGold baculovirus system, pVL1392 vector
T1 sequence (P22735 1-817): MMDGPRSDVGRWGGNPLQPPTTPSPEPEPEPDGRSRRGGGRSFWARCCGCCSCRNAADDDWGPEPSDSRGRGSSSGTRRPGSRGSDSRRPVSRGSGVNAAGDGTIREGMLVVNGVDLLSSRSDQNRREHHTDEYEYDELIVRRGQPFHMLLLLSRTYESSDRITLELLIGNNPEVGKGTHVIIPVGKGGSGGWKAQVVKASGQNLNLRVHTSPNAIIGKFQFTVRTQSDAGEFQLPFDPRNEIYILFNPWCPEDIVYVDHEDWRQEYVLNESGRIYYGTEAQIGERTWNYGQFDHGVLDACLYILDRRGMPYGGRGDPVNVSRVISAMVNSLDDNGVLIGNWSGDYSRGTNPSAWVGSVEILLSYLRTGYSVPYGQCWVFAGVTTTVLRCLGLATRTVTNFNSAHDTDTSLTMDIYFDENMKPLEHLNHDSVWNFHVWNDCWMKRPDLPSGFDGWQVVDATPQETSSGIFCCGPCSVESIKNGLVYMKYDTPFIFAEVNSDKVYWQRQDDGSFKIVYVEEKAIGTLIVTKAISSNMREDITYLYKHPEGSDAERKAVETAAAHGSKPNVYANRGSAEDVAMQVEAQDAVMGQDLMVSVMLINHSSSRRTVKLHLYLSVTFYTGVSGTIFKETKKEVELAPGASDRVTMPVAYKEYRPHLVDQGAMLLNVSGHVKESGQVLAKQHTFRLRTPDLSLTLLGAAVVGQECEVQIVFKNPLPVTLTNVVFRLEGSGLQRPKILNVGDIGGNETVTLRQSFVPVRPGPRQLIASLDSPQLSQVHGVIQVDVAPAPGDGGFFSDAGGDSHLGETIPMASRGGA
Description: A mixture of 54 mol % dimyristoyl-phosphatidylcholine, 15 mol % dipalmitoyl-phosphatidylserine, 30 mol % cholesterol (all from Sigma, St. Louis, Mo.) and 1 mol % lipid Z was made in chloroform: methanol (9:1). This solution was dried down, taken up in aqueous buffer and dispersed by sonication as before (Nemes et al., J. Biol. Chem., 274: in press (1999)). The SLV suspension was equipped with TGase 1 enzyme by incubation at 37° C. for 15 min prior to adding substrates.
The reactions were stopped by the addition of EDTA to 10 mM.
Following reaction, 0.1 ml 20% SDS in water was added to the samples and the mixture was vortexed. This mixture was precipitated and washed three times with acetone-triethylamine-acetic acid (90:5:5) to remove the SDS and the unbound lipids (Konigsberg, W. H. and L. Henderson, Meth. Enzymol., 91: 254-259 (1983), herein expressly incorporated by reference in its entirety). After further washing with acetone the pellet was dried under vacuum and redissolved in 50 mM Tris-HCl (pH 7.5). Resolubilized protein was digested for 16 h with 2 mol % modified trypsin (Boehringer Mannheim). Peptides were resolved on a 250×2 mm PrimesphereC4 HPLC column (Phenomenex) and separated using a gradient elution from 75% buffer A (0.1% TFA in water) to 75% buffer B (50% 2-propanol in acetonitrile) in 40 min. Under these conditions, lipo-peptides were retarded but free peptides elute with the solvent front (Marekov, L. N. and P. M. Steinert, J. Biol. Chem., 273: 17763-17770 (1998), herein expressly incorporated by reference in its entirety).
Amino acid analysis of hydrolyzed samples (5.7 N HCl at 110° C. for 24 h in vacuo) was used to routinely measure amounts of lipo-peptides. Aliquots of isolated lipo-peptide peaks were attached to a solid support for sequencing (Marekov, L. N. and P. M. Steinert, J. Biol. Chem., 273: 17763-17770 (1998), herein expressly incorporated by reference in its entirety). Saponification of lipo-peptides was done with 1 N KOH in 80% methanol for 2 h at 37° C., after which the solution was acidified, dried and peptides were recovered by HPLC on a C18 column.

[2] = system: synthetic lipid vesicles (SLV); assay: Membrane association (binding) to synthetic lipid vesicles, SLV pelleted by ultracentrifugation; details: for effect on Ca++-induced binding of involucrin to SLVs: added to buffer, SLVs with 15 mol % PS; for effect on involucrin binding to SLV when substituted for PS: SLV containing 8% PS plus 0-20% of the anionic phospholipid; for binding to SLV: SLV with 0 or 15% PS, with or without free Ca++
Description: Mixtures of dipalmitoyl-phosphatidylcholine, cholesterol, dipalmitoyl-phosphatidylserine (PS) and other lipids where indicated (all from Sigma, St. Louis, Mo.) were made in chloroform-methanol (95:5). In all cases, the mixtures contained 30% cholesterol. When the amounts of PS or other individual components were varied, phosphatidylcholine was added to make the mixture to 100%. Mixtures were made in 0.5 ml and contained 10 μmol of total lipids. The solvent was flushed away under a stream of N2, dried further under high vacuum for 4 h and then resuspended by vortexing in 0.5 ml of a buffer containing 50 mM Tris-Cl (pH 8.0), 100 mM NaCl, 3 mM NaN3, 5 mM DTT, and 200 mM sucrose. The mixture was sonicated on ice five times each for 1 min using a Branson 250 sonifier with micro probe tip, and allowed to stand at 23° C. to facilitate assembly of SLV. After 1 h the SLV were diluted with 0.5 ml of the above buffer without sucrose, and 200 μl aliquots were centrifuged at 100,000× g for 30 min in a Beckman Airfuge using the A-10 rotor. The top 175 μl was removed, and the pellet resuspended in another 150 μl of sucrose-free buffer. The final stock concentration was 11 μmol/ml.
In all cases, the buffer contained 50 mM Tris-HCl (pH 8.0), 100 mM NaCl, 1 mM DTT, 3 mM NaN3, and other additives where noted. Some mixtures also contained 1 mM CaCl2 or 2 mM EDTA. After mixing, the samples were centrifuged for 45 min at 100,000× g, and the protein content from 50 μl of supernatant was determined by amino acid analysis after acid hydrolysis. Data were usually not corrected for loss of SLV lipids, as in control experiments, cumulated losses were <4% as assayed by ^14C-phosphatidylcholine tracer, and thus neglected from the calculations.
The Ca^++ concentrations in the μM range were set by buffering free Ca^++ with chelators The desired Ca^++/chelator ratios were calculated by the WinMaxC 1.7 computer program (Bers, et al., Methods in Cell Biology Vol 40: A Practical Guide to the Study of Ca^2+ in Living Cells, Nuccitelli, R., ed., pp. 1-327 (1994), herein expressly incorporated by reference in its entirety), and were made by adding the required amounts of 1 M CaCl2 to 0.2 M stock solutions of the following chelators at pH 8.0. Final chelator concentrations in the samples were 10 mM in all cases. Sodium citrate was the chelator for the 20-500 μM Ca^++ range; sodium nitrilotriacetate for the 1-20 μM Ca^++ range; and sodium 1,2-bis(aminophenoxy)ethane-N,N,N′,N′ tetraacetate for the 0.1-1 μM Ca^++ range.

16-hydroxypalmitoylsphingosine
involucrin-lipid adduct formation by TGase 1 on SLV membranes [1]: no involucrin-adduct formation was observed

CCCCCCO [1-hexanol]
inhibition of formation of lipid Z ester ([1]; up to 2% 1-hexanol): did not significantly (p=0.05) inhibit

O=C(O)CN(CCN(CC(=O)O)CC(=O)O)CC(=O)O [EDTA]
inhibition of lipid Z esterification ([1]; EDTA present (5 mM elsewhere in the source)): no lipo-peptides were recovered; also recorded: completely inhibited
effect on Ca++-induced binding of involucrin to SLVs [2]: completely reversible

O=C(O)CN(CCOCCOCCN(CC(=O)O)CC(=O)O)CC(=O)O [EGTA, reference compound]
effect on Ca++-induced binding of involucrin to SLVs [2]: completely reversible

NCCCCN [Putrescine, putrescine]
inhibition of ester formation of each reactive Gln residue ([1]; 1 mM putrescine included in the reaction): 2-3 fold
reduction in ester yields ([1]; 20 mM putrescine added at 45 min, compared to 1 h levels): significantly (p<0.01) reduced; also recorded: about a two-fold and time dependent reduction

NCCSSCCN [cystamine]
inhibition of lipid Z esterification ([1]; 20 mM cystamine): significantly reduced; also recorded: completely inhibited

[Mg+2] [magnesium]
effect on Ca++-induced binding of involucrin to SLVs [2]: did not support the binding

palmitoylsphingosine
involucrin-lipid adduct formation by TGase 1 on SLV membranes [1]: no involucrin-adduct formation was observed

phosphatidic acid [reference compound]
effect on involucrin binding to SLV when substituted for PS [2]: did not enhance binding

phosphatidyl glycerol [reference compound]
effect on involucrin binding to SLV when substituted for PS [2]: did not enhance binding

phosphatidyl inositol [reference compound]
effect on involucrin binding to SLV when substituted for PS [2]: did not enhance binding

B1: loricrin: recombinant human CE protein (protein, UniProt P23490 1-312, looked up)
Loricrin: MSYQKKQPTPQPPVDCVKTSGGGGGGGGSGGGGCGFFGGGGSGGGSSGSGCGYSGGGGYSGGGCGGGSSGGGGGGGIGGCGGGSGGSVKYSGGGGSSGGGSGCFSSGGGGSGCFSSGGGGSSGGGSGCFSSGGGGSSGGGSGCFSSGGGGFSGQAVQCQSYGGVSSGGSSGGGSGCFSSGGGGGSVCGYSGGGSGCGGGSSGGSGSGYVSSQQVTQTSCAPQPSYGGGSSGGGGSGGSGCFSSGGGGGSSGCGGGSSGIGSGCIISGGGSVCGGGSSGGGGGGSSVGGSGSGKGVPICHQTQQKQAPTWPSK
binding to SLV [2]: unable to directly attach to SLV

B2: TGase 3: recombinant full-length human TGase 3, activated with dispase (protein, UniProt Q08188 1-693, looked up)
chain: MAALGVQSINWQTAFNRQAHHTDKFSSQELILRRGQNFQVLMIMNKGLGSNERLEFIVSTGPYPSESAMTKAVFPLSNGSSGGWSAVLQASNGNTLTISISSPASAPIGRYTMALQIFSQGGISSVKLGTFILLFNPWLNVDSVFMGNHAEREEYVQEDAGIIFVGSTNRIGMIGWNFGQFEEDILSICLSILDRSLNFRRDAATDVASRNDPKYVGRVLSAMINSNDDNGVLAGNWSGTYTGGRDPRSWNGSVEILKNWKKSGFSPVRYGQCWVFAGTLNTALRSLGIPSRVITNFNSAHDTDRNLSVDVYYDPMGNPLDKGSDSVWNFHVWNEGWFVRSDLGPSYGGWQVLDATPQERSQGVFQCGPASVIGVREGDVQLNFDMPFIFAEVNADRITWLYDNTTGKQWKNSVNSHTIGRYISTKAVGSNARMDVTDKYKYPEGSDQERQVFQKALGKLKPNTPFAATSSMGLETEEQEPSIIGKLKVAGMLAVGKEVNLVLLLKNLSRDTKTVTVNMTAWTIIYNGTLVHEVWKDSATMSLDPEEEAEHPIKISYAQYEKYLKSDNMIRITAVCKVPDESEVVVERDIILDNPTLTLEVLNEARVRKPVNVQMLFSNPLDEPVRDCVLMVEGSGLLLGNLKIDVPTLGPKEGSRVRFDILPSRSGTKQLLADFSCNKFPAIKAMLSIDVAE
modifications: full-length activated by dispase cleavage
binding to SLV [2]: unable to associate with an SLV of any composition tested
